# Several values for one entry are separate records, joined by “and”; a condition that tells them apart may be missing. Equal values may be shown once.
# Columns and labels:
# Format in all cases: in vivo, human
# [1] = test system: patients; assay: Control: two consecutive adenosine infusions, TTDE velocities; settings: for MV Min, individual patients / PV Min, individual patients / MV Min, mean / PV Min, mean: at rest; for MV Min, individual patients / PV Min, individual patients / PV Max, individual patients / MV Max, individual patients: ADE1 first, ADE2 second adenosine infusion; for MV Min, mean / PV Min, mean / MV Max, mean / PV Max, mean: mean of 5 patients; for PV Max, individual patients / MV Max, individual patients / MV Max, mean / PV Max, mean: under stress
# From the text: Abbreviations used in the table are defined below:
# [2] = test system: coronary patients; assay: TTDE coronary reserve study, concurrent administration for two minutes (Example 3); settings: 31 patients
# From the text: Primary efficacy end-points were peak and mean diastolic flow velocities (their measurements reflect coronary blood flow values). The secondary end-point was patient's tolerance to the procedure.
# [3] = test system: patients; assay: Priming dose effect with the sequential administration mode (Example 5); settings: N = 10
# From the text: Again there was no difference between the two methods for both peak and mean velocities.
# [4] = Delta = peak-BL, concurrent dipyridamole 10 + adenosine 70 μg/kg/min 2 min vs adenosine alone
# [5] = concurrent dipyridamole 10 + adenosine 70 μg/kg/min 2 min vs adenosine alone
structure (smiles),measurement,setting,value
Nc1ncnc2c1ncn2[C@@H]1O[C@H](CO)[C@@H](O)[C@H]1O [adenosine],Max velocity differential MV (ADE1 − ADE2),[1]; 5 patients,52.6 (ADE2) = 2.4 cm/sec
same,Max velocity differential PV (ADE1 − ADE2),[1]; 5 patients,70.8 (ADE2) = 4.8 cm/sec
same,Difference in velocity measurements between two consecutive infusions,"[1]; 140 mcg/kg/min, 5 minute interval, p>0.05",no difference was seen
same,"MV Min, individual patients",[1]; listed as ADE1,20 cm/s and 25 cm/s and 17 cm/s and 22 cm/s and 23 cm/s
same,"PV Min, individual patients",[1]; listed as ADE1,28 cm/sec and 34 cm/sec and 23 cm/sec and 30 cm/sec (2×)
same,"MV Min, individual patients",[1]; listed as ADE2,20 cm/s and 23 cm/s and 16 cm/s and 22 cm/s and 21 cm/s
same,"PV Min, individual patients",[1]; listed as ADE2,25 cm/sec and 31 cm/sec and 22 cm/sec and 29 cm/sec and 26 cm/sec
same,"MV Min, mean",[1]; listed as ADE1,21.4 cm/s
same,"PV Min, mean",[1]; listed as ADE1,29 cm/sec
same,"MV Min, mean",[1]; listed as ADE2,20.4 cm/s
same,"PV Min, mean",[1]; listed as ADE2,26.6 cm/sec
same,"PV Max, individual patients","[1]; 140 mcg/kg/min, 5 minute interval, listed as ADE1",70 cm/sec and 68 cm/sec and 65 cm/sec and 102 cm/sec and 73 cm/sec
same,"PV Max, individual patients","[1]; 140 mcg/kg/min, 5 minute interval, listed as ADE2",62 cm/sec and 60 cm/sec and 66 cm/sec and 103 cm/sec and 63 cm/sec
same,"MV Max, individual patients","[1]; 140 mcg/kg/min, listed as ADE1",50 cm/s and 49 cm/s and 48 cm/s and 75 cm/s and 53 cm/s
same,"MV Max, individual patients","[1]; 140 mcg/kg/min, listed as ADE2",48 cm/sec (2×) and 45 cm/sec and 75 cm/sec and 47 cm/sec
same,"MV Max, mean",[1]; listed as ADE1,55 cm/s
same,"PV Max, mean",[1]; listed as ADE1,75.6 cm/sec
same,"MV Max, mean",[1]; listed as ADE2,52.6 cm/s
same,"PV Max, mean",[1]; listed as ADE2,70.8 cm/sec
same,Delta mean velocity,[2]; [4],41.5 ± 15.3
same,Delta peak velocity,[2]; [4],54.4 ± 20.5
same,Peak velocity at baseline,[2]; at rest,33.0 ± 12.9
same,Mean velocity at baseline,"[2]; at rest, concurrent dipyridamole 10 μg/kg/min + adenosine 70 μg/kg/min 2 min vs adenosine alone 140 mg/kg/min (so in the source)",25.2 ± 8.9
same,Coronary reserve assessment using mean velocity,[2]; [5],2.79 ± 0.90
same,Coronary reserve assessment using peak velocity,[2]; [5],2.82 ± 0.96
same,"Return to BL, individual patients","[3]; ADE 140 μg/kg/min vs C sequential (Dip 40 μg/kg + Ade 70 μg/kg/min), listed as ADE",30 seconds (2×) and 60 seconds (3×) and 50 seconds and 35 seconds (2×) and 40 seconds and 28 seconds
same,"Time to peak, individual patients","[3]; ADE 140 μg/kg/min vs C sequential (Dip 40 μg/kg bolus + Ade 70 μg/kg/min over 2 minutes), listed as ADE",70 seconds and 50 seconds (2×) and 75 seconds and 60 seconds (2×) and 35 seconds and 38 seconds and 90 seconds and 40 seconds
same,"Return to BL, Mean",[3]; sequential administration,43 s
same,"Return to BL, Total",[3]; sequential administration,428 s
same,"Time to peak, Mean",[3]; sequential administration,57 s
same,"Time to peak, Total",[3]; sequential administration,568 s

# — patent publication US20090185973A1, “METHODS, COMPOSITIONS, UNIT DOSAGE FORMS, AND KITS FOR PHARMACOLOGIC STRESS TESTING WITH REDUCED SIDE EFFECTS” (ADENOBIO N.V., priority 2008, published 2009)
